# Reference: patent US20250221431A1, “METHOD FOR FEEDING BLACK SOLDIER FLY LARVAE WITH SELENIUM-RICH BACTERIA SOLUTION” (priority 2024, published 2025)
# Where two headings read alike, the source gives them in different places.
# Columns and labels:
# black soldier fly larvae [1] = conditions: Example 2, chicken feed, 4-day-old larvae
# Experimental: Step 3, 4-day-old black soldier fly larvae were selected to be fed; the selenium-rich bacteria solution was added to chicken feed to enable the chicken feed to have a total selenium content of 100, 200, 300 mg/kg (wet weight), respectively; a moisture content of the chicken feed was controlled to 60%, then the black soldier fly larvae were fed with the chicken feed at a ratio of dry chicken feed to larva being 116 g per 150 larvae (the ratio of dry feed to larva was 0.77) in conditions of 28° C.-30° C. feeding temperature and 60%-70% air humidity level, and feeding was terminated at the end of the fifth instar of the larvae.
# (§1) The effects of the selenium-rich bacteria solution on breeding of the selenium-rich black soldier flies were determined according to the indicators, i.e. growth performance of the larvae (survival rate, larva weight), bioconversion efficiency, and selenium content in the larva.
# (§2) After the feeding was terminated, the obtained larvae were screened, washed, wiped dry and weighed. The survival rate was calculated according to the number of live larvae. The larvae were subjected to starvation for 1 day, then dried and weighed. The residual feed was also dried and weighed. Thereby, bioconversion efficiency was calculated according to the following: bioconversion efficiency=dry weight of the larvae/(dry weight of the added feed−dry weight of the residual feed)×100%. Selenium content in the larva was determined after smashing the dry larvae according to “GB5009.93-2017 Determination of Selenium in Food”.
# black soldier fly larvae [2] = conditions: Example 3, bean pulp/bran/grass meal 3:5:2 feed, 6-day-old larvae
# Experimental: as §2
# as §1, with “Effects” for “The effects”, “larva. The test method for each indicator was the same as that in Example 2.” for “larva.”
# black soldier fly larvae [3] = conditions: Example 4, bean pulp/bran/grass meal 3:5:2 feed, 6-day-old larvae
# Experimental: as §2
# as §1, with “Effects” for “The effects”, “larva. Test method for each indicator was the same as that in Example 2.” for “larva.”
# black soldier fly larvae [4] = conditions: Example 5, bean pulp/bran/grass meal 3:5:2 feed, 6-day-old larvae
# Experimental: as §2
# as §1, with “larva. Test method for each indicator was the same as that in Example 2.” for “larva.”
# [5] = selenium content added 100.00 mg/kg
# [6] = selenium content added 200.00 mg/kg
# [7] = selenium content added 300.00 mg/kg
smiles,measurement,setting,value
O=[Se](O)O [sodium selenite],Larva weight,black soldier fly larvae [1]; [5],212.39 ± 9.63 mg per larva
same,Larva weight,black soldier fly larvae [1]; [6],214.37 ± 7.56 mg per larva
same,Survival rate,black soldier fly larvae [1]; [6],94.22 ± 1.35%
same,Larva weight,black soldier fly larvae [1]; [7],210.57 ± 3.50 mg per larva
same,Survival rate,black soldier fly larvae [1]; [7],91.33 ± 4.27%
same,Larva weight,black soldier fly larvae [2]; [5],179.63 ± 9.99 mg per larva
same,Survival rate,black soldier fly larvae [2]; [5],85.04 ± 8.77%
same,Larva weight,black soldier fly larvae [2]; [6],154.41 ± 10.66 mg per larva
same,Survival rate,black soldier fly larvae [2]; [6],84.51 ± 5.06%
same,Larva weight,black soldier fly larvae [2]; [7],119.53 ± 10.79 mg per larva
same,Survival rate,black soldier fly larvae [2]; [7],82.22 ± 8.77%
same,Larva weight,black soldier fly larvae [3]; [5],183.72 ± 9.71 mg per larva
same,Survival rate,black soldier fly larvae [3]; [5],87.12 ± 6.53%
same,Larva weight,black soldier fly larvae [3]; [6],156.56 ± 11.10 mg per larva
same,Survival rate,black soldier fly larvae [3]; [6],89.27 ± 3.40%
same,Larva weight,black soldier fly larvae [3]; [7],122.15 ± 5.66 mg per larva
same,Survival rate,black soldier fly larvae [3]; [7],83.17 ± 0.97%
same,Larva weight,black soldier fly larvae [4]; [5],179.95 ± 9.51 mg per larva
same,Survival rate,black soldier fly larvae [4]; [5],85.33 ± 6.40%
same,Larva weight,black soldier fly larvae [4]; [6],153.34 ± 10.87 mg per larva
same,Survival rate,black soldier fly larvae [4]; [6],87.43 ± 3.33%
same,Larva weight,black soldier fly larvae [4]; [7],119.64 ± 5.54 mg per larva
same,Survival rate,black soldier fly larvae [4]; [7],81.46 ± 0.96%
